Marks after values point to notes of the source that are not given here.
Assays:
[1] = system: HCT-116 colon cancer xenografts; assay: Tumor growth inhibition of HCT-116 colon cancer xenografts in tumor-bearing nude mice (tumor volume, TGI %, RTV, T/C %); type: in vivo, Balb/c Nude mice
Protocol: 4.1 Tumor cells: colon cancer HCT-116 cells, purchased from the Institute of Cell Biology, Chinese Academy of Sciences. The cells were incubated by F-12 medium (containing 10% FBS) in carbon dioxide incubator at 37° C. and in saturated humidity, with 5% CO2 and 95% air in volume fraction. Before inoculation, the cells at logarithmic phase were taken, and digested with 0.25% trypsin, washed once with PBS and resuspended in PBS for counting. The cells were resuspended in serum-free medium and adjusted to about 3×10^7 cell/mL.
The grouping is as follows:
The formations of tumor at the inoculation site of each group of nude mice were observed. The diameter of tumor nodule (D) was measured three times a week with round hole ruler, and the volume of tumor nodule (V) was calculated according to the following formula: […].
Anti-tumor activity was evaluated by tumor growth inhibition rate TGI (%) and relative tumor proliferation rate T/C (%).
The relative tumor volume (RTV) was calculated as: RTV=Vt/V0, where V0 was the tumor volume when they were grouped and administered, and Vt was the tumor volume at the time of measurement.
The relative proliferation rate T/C (%) was calculated as: […].
TRTV: RTV of the treatment group; CRTV: RTV of the control group.
P<0.05 was considered as significant difference.

[2] = Protocol: To determine the growth inhibition effect and toxicity of the cytidine derivative samples of the present invention on the transplanted tumor of nude mice bearing colon cancer HCT-116.
The corresponding amount of test substance was taken in a 5 mL glass tube and dissolved in ethanol with a 5 mm magnetic stirrer for stirring. After dissolving completely, Cremophor EL was added with continuous stirring. The marked amount of saline was added and mixed evenly before use. The volume ratio of ethanol, Cremophor EL, and physiological saline was 5:5:90.
Varieties and lines; Balb/c Nude mice; level: SPF; sex: female.
4.2 Animal inoculation and grouping: Each nude mouse was inoculated subcutaneously with 0.1 mL of cell suspension (3×10^6 cell/mouse) at right side of hind limb in a sterile stale. When the tumor grew to about 60-150 mm^3, the nude mice with similar tumor volume and desirable shape were selected (it would be better to select single spherical shape, no irregular shape or multiple tumors grouped together) for grouping, 6 mice a group. The grouping is as follows:
The control group, namely the model control group, was injected with a mixture of ethanol, Cremophor EL, and saline (5:5:90).
Those mice were weighed three times a week.
All clinical symptoms of each animal should be recorded at the beginning of the test and during the test. The observations should be made at the same time each day.
An animal would be killed by CO2 when its weight loss was more than 20%, when it was about to die, or when its tumor volume exceeded 2800 mm^3. The tumor was separated and weighed, and the animal was autopsied and observed to evaluate and record whether there were pathological changes in the organs.
The data were expressed as Mean±SEM unless specially provided; Non-pairing T test was performed for the data between the two groups. P<0.05 was considered as significant difference.

[3] = Day 0, G3-G9 groups, single IP dose, Mean±SEM
[4] = Day 4, G3-G9 groups, single IP dose, Mean±SEM
[5] = Day 6, G3-G9 groups, single IP dose, Mean±SEM
[6] = Day 8, G3-G9 groups, single IP dose, Mean±SEM
[7] = Day 11, G3-G9 groups, single IP dose, Mean±SEM
[8] = Day 13, G3-G9 groups, single IP dose, Mean±SEM
[9] = Day 15, G3-G9 groups, single IP dose, Mean±SEM
[10] = Day 18, G3-G9 groups, single IP dose, Mean±SEM
[11] = Day 20, G3-G9 groups, single IP dose, Mean±SEM
[12] = Day 22, G3-G9 groups, single IP dose, Mean±SEM

CC(C)(C)OC(=O)Nc1ccn([C@@H]2O[C@H](COC(=O)Cn3cnc([N+](=O)[O-])c3)[C@@H](O)C2(F)F)c(=O)n1 [Compound G9, 5′-O-[2-(4-nitro-1H-imidazole)acetate]-4-N-(tert-butoxycarbonyl)-2′-deoxy-2′,2′-difluorocytidine]
Day 0 (RTV) [1, 3]: 1.00 ± 0.00 | Tumor volume, Day 0 [1, 3]: 42.31 ± 7.52** mm^3 | Day 4 (TGI %) ([1]; Day 4, G3-G9 groups, single IP dose): 80.77% | Day 4 (RTV) [1, 4]: 1.21 ± 0.16 | Tumor volume, Day 4 [1, 4]: 51.25 ± 10.24** mm^3 | Day 6 (TGI %) ([1]; Day 6, G3-G9 groups, single IP dose): 80.67% | Day 6 (RTV) [1, 5]: 1.82 ± 0.40 | Tumor volume, Day 6 [1, 5]: 81.69 ± 23.70** mm^3 | Day 8 (TGI %) ([1]; Day 8, G3-G9 groups, single IP dose): 79.22% | Day 8 (RTV) [1, 6]: 2.72 ± 0.82 | Tumor volume, Day 8 [1, 6]: 109.19 ± 29.60** mm^3 | Day 11 (TGI %) ([1]; Day 11, G3-G9 groups, single IP dose): 76.07% | Day 11 (RTV) [1, 7]: 4.91 ± 1.08 | Tumor volume, Day 11 [1, 7]: 192.42 ± 37.84** mm^3 | Day 13 (TGI %) ([1]; Day 13, G3-G9 groups, single IP dose): 72.93% | Day 13 (RTV) [1, 8]: 8.16 ± 1.87 | Tumor volume, Day 13 [1, 8]: 314.26 ± 60.92** mm^3 | Day 15 (TGI %) ([1]; Day 15, G3-G9 groups, single IP dose): 60.81% | Day 15 (RTV) [1, 9]: 13.83 ± 2.98 | Tumor volume, Day 15 [1, 9]: 553.69 ± 115.02** mm^3 | Day 18 (TGI %) ([1]; Day 18, G3-G9 groups, single IP dose): 51.00% | Day 18 (RTV) [1, 10]: 23.10 ± 5.36 | Tumor volume, Day 18 [1, 10]: 907.03 ± 187.09** mm^3 | Day 20 (TGI %) ([1]; Day 20, G3-G9 groups, single IP dose): 42.39% | Day 20 (RTV) [1, 11]: 31.85 ± 7.62 | Tumor volume, Day 20 [1, 11]: 1221.09 ± 228.29** mm^3 | Day 22 (RTV) [1, 12]: 42.35 ± 10.48 | Tumor volume, Day 22 [1, 12]: 1607.01 ± 297.45** mm^3 | relative tumor volume compared with the model control group ([1]; G4 and G5 Day 4 to Day 18, G7 Day 4 to Day 15 (p<0.05-0.01), G9 only Day 4 (p<0.05)): reduced significantly | maximum value of TGI % ([1]; day of maximum: G3 Day 8, G4 Day 11, G5 Day 11, G9 Day 4, G7 Day 8, single IP): 80.77% | Weight change rate, Day 0 [2, 3]: 0.00 ± 0.00% | Weight of mice, Day 0 [2, 3]: 20.55 ± 0.56 g | Weight change rate, Day 4 [2, 4]: −0.08 ± 3.14% | Weight of mice, Day 4 [2, 4]: 20.48 ± 0.57 g | Weight change rate, Day 6 [2, 5]: 2.53 ± 2.85% | Weight of mice, Day 6 [2, 5]: 21.02 ± 0.48 g | Weight change rate, Day 8 [2, 6]: 3.54 ± 3.17% | Weight of mice, Day 8 [2, 6]: 21.22 ± 0.51 g | Weight change rate, Day 11 [2, 7]: 5.18 ± 2.98% | Weight of mice, Day 11 [2, 7]: 21.55 ± 0.43 g | Weight change rate, Day 13 [2, 8]: 7.65 ± 3.18% | Weight of mice, Day 13 [2, 8]: 22.05 ± 0.42 g | Weight change rate, Day 15 [2, 9]: 5.50 ± 3.26% | Weight of mice, Day 15 [2, 9]: 21.60 ± 0.33 g | Weight change rate, Day 18 [2, 10]: 3.38 ± 3.55% | Weight of mice, Day 18 [2, 10]: 21.17 ± 0.46 g | Weight change rate, Day 20 [2, 11]: 2.91 ± 3.85% | Weight of mice, Day 20 [2, 11]: 21.05 ± 0.36 g | Weight change rate, Day 22 [2, 12]: 8.18 ± 4.15% | Weight of mice, Day 22 [2, 12]: 22.13 ± 0.47 g | Day 22 Mortality ([2]; Day 22, single IP dose (mg/kg)): 0% | clinical symptoms ([2]; after single IP dose, compared with model control group): no significant differences in clinical symptoms

Reference: patent US10174067B2, “Type of cytidine derivative and application thereof” (priority 2014, dated 2019)
